Assay results published in patent US20250353891A1 (MEDIMMUNE LIMITED, priority 2022, published 2025).
Values joined by “and” are separate entries in the source; they are usually repeats but may differ in a detail not shown here. Equal values may be shown once. Starred links: 1 amine or outer side, 2 acyl side, 3 side chain; linkers in the order of their positions; H or OH if unused. Non-standard residues stand in square brackets, D forms with d. Residues, ends and D or L forms follow the SMILES beside them. Groups on a side chain read outwards from the residue. *: point of attachment. C20 diacid = O=C(O)CCCCCCCCCCCCCCCCCCC(=O)*; γGlu = O=C(O)[C@H](CCC(=O)[*:2])N[*:1]; αMeF = C[C@](N)(Cc1ccccc1)C(=O)O; AEEA = NCCOCCOCC(=O)O; Aib = CC(C)(N)C(=O)O

Key:
in vivo [1] = details: 10 nmol/kg; for half-life: iv
Description: (§1) Selected test peptides (n=8) were profiled for pharmacokinetic (PK) properties in the mouse after single intravenous (i.v.) or subcutaneous (s.c.) dose. A subset (n=4) meeting the acceptance criteria was subsequently profiled in the dog (single i.v. dose) and non-human primate (single i.v. and s.c. dose). […] Low-binding plasticware containers were used during preparation and sample handling to avoid non-specific binding.
After dosing, PK samples were collected from the dorsal metatarsal vein. Blood of each sample was transferred into plastic micro centrifuge tubes containing EDTA-K2, inverted several times for proper mixing of contents and then placed on wet ice. The blood samples were centrifuged at 4° C. to obtain plasma and stored at −75° C. prior to analysis.
(§2) Samples analysis: Samples were analyzed by LC-MS/MS. Calibration standards were injected at the beginning and end of each batch and the determined concentration for each prepared standard was used to construct a calibration curve. Plasma and dose aliquot sample concentrations were determined from the plasma calibration curve.
(§3) Data analysis: Plasma concentration data was analyzed by non-compartmental analysis (NCA) using Phoenix Winnonlin v. 8.3.3.33. Linear trapezoidal rule was used for increasing values and log trapezoidal rule was used for decreasing values, applying uniform weighting for lambda_z calculations. Subcutaneous bioavailability was calculated as the ratio AUC(s.c.)0-inf/AUC(i.v.)0-inf. Reported values (Table 18) represent the mean of the individual estimates.

[2] = target: human glucagon receptor (hGCGR) (Homo sapiens, UniProt P47871); assay: cAMP production (HTRF) in CHO cells expressing hGCGR; assay type: cell-based; set-up: expressed in transfected cells; details: Table 6, peptides modified at position 17; cAMP in CHO hGCGR cells; geometric mean; read-out: hGluc-R EC50
Procedure, shortened: (§4)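 Cells were resuspended in assay buffer at batch-optimized density, typically 1×10^5 cells/mL for hGLP-1R and 2×10^5 cells/mL for hGCGR. After 30 min incubation at room temperature with compound, cAMP was measured by two-step HTRF. EC50 values came from 4-parameter logistic fits of % Delta F.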

[3] = target: human GLP-1 receptor (hGLP-1R) (Homo sapiens, UniProt P43220); assay: cAMP production (HTRF) in CHO cells expressing hGLP-1R; assay type: cell-based; set-up: expressed in transfected cells
Procedure, shortened: as §4

wildtype (WT) mice = assay: Glucose change in wildtype mice; assay type: in vivo, mouse; details: s.c., 60 min vs 0 min, no somatostatin pretreatment
Procedure, shortened: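 Wildtype mice aged 8-14 weeks, fasted 2 h, sometimes pre-treated with octreotide 10 mg/kg 30 min before peptide injection. Blood glucose by glucometer at -30, 0, 30, 60, 120, 180, 240 and 360 min; n=4-8/group, mice reused up to 3 times with ≥1 week wash-out.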

[4] = Mouse acute food intake study; assay type: in vivo; details: male C57Bl/6 mice, s.c., cumulative food intake at 24 hr vs vehicle
Procedure, shortened: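 Peptide or vehicle went subcutaneously (5 mL/kg) to 6-8 h-fasted male C57Bl/6 mice shortly before the dark phase, with groups balanced on body weight and 24-hour intake. Cumulative food consumption was derived from 48 h of automated BioDaq monitoring with free food and water access.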

[5] = test system: GLP-1R knockout (KO) mice; assay: Glucose change in GLP-1R knockout mice; assay type: in vivo, mouse; details: GLP-1R KO mice, s.c., 60 min vs 0 min, no somatostatin pretreatment
Procedure, shortened: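 GLP-1R knockout mice (n=4-8/group, sorted by body weight) were fasted 2 h, and in some studies pretreated with octreotide 10 mg/kg 30 min before peptide injection. Mice were reused up to 3 times with at least 1-week wash-out.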

in vivo [6] = details: male, cynomolgus monkey, 10 nmol/kg
Description: as §1
Non-human primate: PK was studied in non-naïve male cynomolgus monkeys. After dosing, PK samples were collected from the femoral vein. Blood of each sample was transferred into plastic micro centrifuge tubes containing EDTA-K2, inverted several times for proper mixing of contents and then placed on wet ice. The blood samples were centrifuged under refrigerated (2° C. to 8° C.) conditions within 30 minutes following sample collection to obtain plasma and stored at −60° C. to −90° C.° C. prior to analysis.
as §2, §3

in vivo [7] = details: male, Beagle, dog, iv, 10 nmol/kg
Description: as §1
Blood of each sample was transferred into plastic micro centrifuge tubes containing EDTA-K2, inverted several times for proper mixing of contents and then placed on wet ice.
as §2, §3

[8] = Proteolytic resistance to FasSSIF/Pancreatin; assay type: in vitro ADME; details: simulated intestinal fluid
Procedure, shortened: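 Peptide (1.0 mg) in pre-warmed FasSSIF, proteolysis started with fresh FasSSIF/USP Pancreatin and held at 37 °C. Aliquots at 0, 5, 10, 15, 30 min quenched in 10% TFA; remaining intact peptide estimated by RP-HPLC peak area, UV 210 nm.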

[9] = Proteolytic resistance to FasSSGF containing porcine pancreatic pepsin; assay type: in vitro ADME; details: pig, simulated gastric fluid
Method: Stimulated Gastric Fluid (FasSSGF) Containing Porcine Pancreatic Pepsin Lyophilized porcine pancreatic pepsin (Sigma: P7012) was reconstituted to 0.5 mg/mL (˜2500 units/mL) in freshly prepared FasSSGF (Biorelevant media) to give the enzyme stock solution. Peptide stock solution was prepared to a concentration of 250 μM (˜1.0 mg/mL) in FasSSGF. 200 μL ([…], ˜250 units) of pepsin stock solution was added to 200 μL of peptide solution (1.0 mg/mL, ˜100 μg of peptide, ˜25 nmoles) and the mixture was co-incubated in a temperature-regulated incubator at 37° C. for the duration of the experiment. 30 μL aliquot of the peptide-enzyme mixture was periodically withdrawn (t=0, 5, 10, 15, and 30 min) and quenched immediately by addition of 80 μL of 0.1M ammonium bicarbonate solution in water/acetonitrile (4:1, pH 8) to arrest proteolytic activity. 30 μL aliquot was analyzed by analytical RP-HPLC. Analytical RP-HPLC method: Agilent Polaris C8-A column (4.6×100 mm, 3 micron) eluted with a linear binary gradient of 10-90% MeCN (0.1% TFA v/v) in water (0.1% TFA v/v) over either 10 or 15 mins at 1.5 mL min-1 at 40° C. with detection by UV absorption at 210 nm. Manual integration (AUC) allowed estimation of remaining intact peptide over the time course of the experiment.

recombinant Neprilysin = target: T1, recombinant Neprilysin (Homo sapiens, UniProt P08473); assay: Proteolytic resistance to neprilysin; assay type: in vitro ADME; details: pH 8.3
T1 construct: purchased R&D Systems 1182-ZNC-010
Method: 10.0 μg (˜10 units) recombinant Neprilysin (R&D Systems: 1182-ZNC-010) was reconstituted to 100 μL (100 μg/mL, ˜100 units/mL) in assay buffer (50 mM Tris, 50 mM NaCl, 50 mM NaHCO3, adjusted to pH 8.3) to give the enzyme stock solution. Peptide stock solutions were prepared to a concentration of ˜250 μM (˜1.0 mg/mL of 4 kDa peptide) in assay buffer. 100 μL (10 μg, ˜10 units) of neprilysin stock solution was added to 100 μL of peptide stock solution (1.0 mg/mL, ˜100 μg of peptide) and the mixture was co-incubated in a temperature regulated incubator at 37° C. for the duration of the experiment. 25 μL aliquots (˜ 12.5 μg initial peptide) of the peptide-enzyme mixture were periodically withdrawn (t=0, 30 mins, 1 h, 2 h, 4 h and 24 h) and quenched immediately by addition to an equal volume ([…]) of 10% TFA (v/v) in 1:1 water/acetonitrile to arrest proteolytic activity. The quenched aliquot centrifuged at 7800 rpm, and 30 μL of the supernatant was analyzed by analytical RP-HPLC as follows: Analytical RP-HPLC method: Agilent Polaris C8-A column (4.6×100 mm, 3 micron) eluted with a linear binary gradient of 10-90% MeCN (0.1% TFA v/v) in water (0.1% TFA v/v) over either 10 or 15 mins at 1.5 mL min-1 at 40° C. with detection by UV absorption at 210 nm. Manual integration (AUC) allowed estimation of remaining intact peptide over the time course of the experiment.

T1 sequence (P08473 52-750 limits assumed): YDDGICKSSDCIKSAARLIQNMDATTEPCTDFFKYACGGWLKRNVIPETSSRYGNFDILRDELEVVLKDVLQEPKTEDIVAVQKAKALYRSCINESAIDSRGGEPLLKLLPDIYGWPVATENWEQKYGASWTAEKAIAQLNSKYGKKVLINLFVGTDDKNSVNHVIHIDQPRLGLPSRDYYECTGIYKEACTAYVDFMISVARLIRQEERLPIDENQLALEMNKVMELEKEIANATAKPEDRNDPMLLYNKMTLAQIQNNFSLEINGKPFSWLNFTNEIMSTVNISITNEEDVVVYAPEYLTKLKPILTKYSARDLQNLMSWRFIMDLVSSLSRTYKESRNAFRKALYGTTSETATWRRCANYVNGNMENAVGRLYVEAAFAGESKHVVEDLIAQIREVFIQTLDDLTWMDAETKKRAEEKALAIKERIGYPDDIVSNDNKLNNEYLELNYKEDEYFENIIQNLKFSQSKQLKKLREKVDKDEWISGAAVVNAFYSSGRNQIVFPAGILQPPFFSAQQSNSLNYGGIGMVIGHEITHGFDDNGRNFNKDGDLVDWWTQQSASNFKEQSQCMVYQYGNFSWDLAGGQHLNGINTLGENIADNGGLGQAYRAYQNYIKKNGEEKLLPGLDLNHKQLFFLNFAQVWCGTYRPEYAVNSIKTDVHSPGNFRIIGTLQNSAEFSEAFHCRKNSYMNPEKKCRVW
Sequence of human GLP-1 receptor (hGLP-1R) (P43220 24-463): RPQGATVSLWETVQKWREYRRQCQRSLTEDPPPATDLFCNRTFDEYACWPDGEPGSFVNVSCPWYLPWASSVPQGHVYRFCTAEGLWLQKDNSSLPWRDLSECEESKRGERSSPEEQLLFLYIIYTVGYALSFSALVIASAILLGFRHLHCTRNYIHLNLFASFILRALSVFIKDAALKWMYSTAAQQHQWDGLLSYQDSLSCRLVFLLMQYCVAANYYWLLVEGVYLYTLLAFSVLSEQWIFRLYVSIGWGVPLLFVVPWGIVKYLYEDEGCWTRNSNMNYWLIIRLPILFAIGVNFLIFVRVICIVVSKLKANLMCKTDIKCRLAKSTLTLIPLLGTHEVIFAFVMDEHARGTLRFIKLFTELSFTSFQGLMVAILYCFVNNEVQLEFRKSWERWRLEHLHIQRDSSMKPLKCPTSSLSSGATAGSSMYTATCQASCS
Sequence of human glucagon receptor (hGCGR) (P47871 26-477): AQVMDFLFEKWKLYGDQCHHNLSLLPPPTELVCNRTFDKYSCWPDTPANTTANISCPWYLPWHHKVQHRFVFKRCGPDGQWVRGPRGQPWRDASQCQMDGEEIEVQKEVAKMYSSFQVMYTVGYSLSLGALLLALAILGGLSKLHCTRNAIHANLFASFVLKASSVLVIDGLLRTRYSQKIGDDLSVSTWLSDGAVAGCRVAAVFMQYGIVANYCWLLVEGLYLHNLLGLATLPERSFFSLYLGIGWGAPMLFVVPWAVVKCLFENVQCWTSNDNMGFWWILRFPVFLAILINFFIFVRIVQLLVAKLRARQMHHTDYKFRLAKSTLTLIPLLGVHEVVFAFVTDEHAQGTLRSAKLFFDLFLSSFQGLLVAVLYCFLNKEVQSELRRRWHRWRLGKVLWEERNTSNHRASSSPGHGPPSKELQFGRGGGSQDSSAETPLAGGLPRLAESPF

## CC(C)C[C@H](NC(=O)[C@H](Cc1c[nH]c2ccccc12)NC(=O)[C@H](CCC(N)=O)NC(=O)[C@@H](NC(=O)[C@H](Cc1ccccc1)NC(=O)[C@H](CC(=O)O)NC(=O)[C@H](CCCNC(=N)N)NC(=O)[C@H](C)NC(=O)[C@H](CCCNC(=N)N)NC(=O)[C@H](CCCCNC(=O)COCCOCCNC(=O)COCCOCCNC(=O)CC[C@H](NC(=O)CCCCCCCCCCCCCCCCC(=O)O)C(=O)O)NC(=O)[C@@H](NC(=O)[C@H](CC(=O)O)NC(=O)[C@H](CC(C)C)NC(=O)[C@](C)(Cc1ccccc1)NC(=O)[C@H](CCCCN)NC(=O)[C@H](CO)NC(=O)[C@@H](NC(=O)[C@H](CC(=O)O)NC(=O)[C@H](CO)NC(=O)[C@@H](NC(=O)[C@H](Cc1ccccc1)NC(=O)[C@@H](NC(=O)CNC(=O)[C@H](CCC(N)=O)NC(=O)C(C)(C)NC(=O)[C@@H](N)Cc1c[nH]cn1)[C@@H](C)O)[C@@H](C)O)C(C)C)[C@@H](C)O)C(C)C)C(=O)N[C@@H](CC(C)C)C(=O)N[C@@H](CCC(=O)O)C(=O)NC(C)(C)C(=O)NCC(=O)O [Peptide 188, H-Aib-Q-G-T-F-T-S-D-V—S-K-αMePhe-L-D-T-K-R-A-R-D-F-V-Q-W-L-L-E-Aib-G-acid]
In vivo [1]; male, C57BL/6, mouse
  bioavailability: 98%
  half-life: 7.9 h
[2]
  EC50: 34.7 pM
[3]; Table 6, peptides modified at position 17, cAMP in CHO hGLP-1R cells, geometric mean, read-out: hGLP-1R EC50
  EC50: 20.8 pM
[3]; Table 6, % GLP-1R activity relative to GLP-1 / % GlucR activity relative to glucagon
  % Relative Potency Ratio: 3.3
Wildtype (WT) mice; 10 nmol/kg
  WT % glucose change 60 min: −23.2%
Wildtype (WT) mice; 30 nmol/kg
  WT % glucose change 60 min: −31.3%
[4]; dose 1 nmol/kg
  24 hr % Vehicle Food Intake: 99.9%
[4]; dose 3 nmol/kg
  24 hr % Vehicle Food Intake: 80.6%
[4]; dose 10 nmol/kg
  24 hr % Vehicle Food Intake: 60.7% and 49.8%
[5]; 10 nmol/kg
  GLP-1R KO % glucose change - 60 min: 64%
[5]; 30 nmol/kg
  GLP-1R KO % glucose change - 60 min: 44.6%
In vivo [6]
  bioavailability: 79%
In vivo [6]; iv
  half-life: 67 h
In vivo [7]
  half-life: 71 h

## CC[C@H](C)[C@H](NC(=O)C(C)(C)NC(=O)[C@H](CCC(N)=O)NC(=O)[C@@H](NC(=O)[C@](C)(Cc1ccccc1)NC(=O)[C@H](CC(=O)O)NC(=O)[C@H](CCCCNC(=O)COCCOCCNC(=O)COCCOCCNC(=O)CC[C@H](NC(=O)CC[C@H](NC(=O)CCCCCCCCCCCCCCCCCCC(=O)O)C(=O)O)C(=O)O)NC(=O)[C@H](C)NC(=O)[C@H](C)NC(=O)[C@H](CCCNC(=N)N)NC(=O)[C@H](CO)NC(=O)[C@H](CC(=O)O)NC(=O)[C@H](CC(C)C)NC(=O)[C@](C)(Cc1ccccc1)NC(=O)[C@H](CCCCN)NC(=O)[C@H](CO)NC(=O)[C@@H](NC(=O)[C@H](CC(=O)O)NC(=O)[C@H](CO)NC(=O)[C@@H](NC(=O)[C@](C)(Cc1ccccc1)NC(=O)[C@H](CO)NC(=O)CNC(=O)[C@H](Cc1c[nH]cn1)NC(=O)C(C)(C)NC(=O)[C@@H](N)Cc1c[nH]cn1)[C@@H](C)O)C(C)C)C(C)C)C(=O)N[C@@H](C)C(=O)N[C@@H](CC(N)=O)C(=O)N[C@H](C(N)=O)[C@@H](C)O [Peptide 229, H-Aib-H-G-S-αMePhe-T-S-D-V—S-K-αMePhe-L-D-S-R-A-A-K (E-(O2Oc)-(O2Oc)-γE-γE-C20diacid) 20-D-αMePhe-V-Q-Aib-I-A-N-T-amide] (H-H[Aib]HGS[αMeF]TSDVSK[αMeF]LDSRAAK([AEEA-AEEA-γGlu-γGlu-C20 diacid])D[αMeF]VQ[Aib]IANT-NH2; N-terminus assumed)
[8]
  remaining at 5 min, 3.3 mg/mL: 60%
  remaining at 10 min, 3.3 mg/mL: 46%
  remaining at 0.25 h, 3.3 mg/mL: 33%
  remaining at 0.5 h, 3.3 mg/mL: 26%
[9]
  remaining at 5 min, 125 µM: 100%
  remaining at 10 min, 125 µM: 97%
  remaining at 0.25 h, 125 µM: 91%
  remaining at 0.5 h, 125 µM: 79%
In vivo [1]; mouse
  bioavailability: 86%
  half-life: 19 h
Recombinant Neprilysin; isolated enzyme neprilysin
  remaining at 0.5 h: 100%
  remaining at 2 h: 100%
  remaining at 4 h: 100%
  remaining at 24 h: 100%
Recombinant Neprilysin
  % intact peptide over time: 100%
